In patent US20080279868A1, “Antibody-Drug Conjugates and Methods of Use” (priority 2005, published 2008):

Assay: Rate of cyclization of 6-membered hydrazine linker in buffer
Type: physicochemical
Settings: for rate of cyclization of the hydrazine linker: buffer at pH 7.4
Protocol: A duocarmycin analog conjugated to a dimethyl 6-membered hydrazine linker was incubated in buffer at pH 7.4 for 24 hours and the generation of cyclized product resulting from cyclization of the hydrazine linker, thereby releasing free duocarmycin analog, was assessed over time.
A duocarmycin analog conjugated to a gem-dimethyl 6-membered hydrazine linker was incubated in buffer at pH 7.4 and the generation of cyclized product resulting from cyclization of the hydrazine linker, thereby releasing free duocarmycin analog, was assessed over time.

Compound | rate of cyclization of the hydrazine linker | generation of cyclized product resulting from cyclization of the hydrazine linker (buffer at pH 7.4, over 24 hours)
COC(=O)c1c(C)[nH]c2c(OC(=O)N(C)C(C)(C)C(=O)N(C)N)cc3c(c12)[C@H](CCl)CN3C(=O)c1cc2cc(OC)ccc2o1 | proceeding to completion within a few minutes | –
COC(=O)c1c(C)[nH]c2c(OC(=O)N(C)CC(=O)N(C)N)cc3c(c12)[C@H](CCl)CN3C(=O)c1cc2cc(OC)ccc2o1 | relatively slow rate of cyclization | Minimal amounts of cyclized product
